Assay: refractive index (other wavelength) (dimensionless); xn = mol fraction of the nth substance listed
Conditions: 94.64 kPa, Liquid, Standard Abbe refractometry

OCCCO [propan-1,3-diol] + CC(O)CO
refractive index
Conditions	x2 = 0	x2 = 0.0985	x2 = 0.2023	x2 = 0.3015	x2 = 0.3961	x2 = 0.5009	x2 = 0.5961	x2 = 0.6965	x2 = 0.7974	x2 = 0.8985
293.15 K, Wavelength=404.7 nm	1.45177	1.45152	1.45117	1.45077	1.45025	1.44969	1.44909	1.44823	1.44738	1.44618
293.15 K, Wavelength=435.8 nm	1.44842	1.44817	1.44786	1.44741	1.44688	1.44623	1.4456	1.44492	1.44401	1.44315
293.15 K, Wavelength=486.1 nm	1.4444	1.44417	1.44386	1.44341	1.4429	1.44217	1.44132	1.44021	1.43935	1.43821
293.15 K, Wavelength=546.1 nm	1.44112	1.44088	1.44041	1.44013	1.43961	1.43884	1.43806	1.43695	1.4362	1.43491
293.15 K, Wavelength=587.6 nm	1.43939	1.43913	1.43875	1.4384	1.43788	1.43721	1.43623	1.43524	1.43439	1.43321
293.15 K, Wavelength=632.8 nm	1.43781	1.43756	1.43729	1.43683	1.43632	1.43545	1.43467	1.43369	1.43253	1.43168
293.15 K, Wavelength=644 nm	1.43746	1.43722	1.43699	1.43649	1.43597	1.43501	1.43435	1.43334	1.43219	1.43133
293.15 K, Wavelength=706.5 nm	1.43577	1.43555	1.43506	1.43479	1.43428	1.43373	1.43315	1.43207	1.4311	1.42985
298.15 K, Wavelength=404.7 nm	1.45037	1.44979	1.44932	1.4489	1.44849	1.44768	1.44694	1.44595	1.44515	1.44396
298.15 K, Wavelength=435.8 nm	1.447	1.44654	1.44606	1.44553	1.44512	1.44432	1.4436	1.44261	1.44156	1.44059
298.15 K, Wavelength=486.1 nm	1.44301	1.44246	1.44198	1.44156	1.44107	1.44037	1.43963	1.43868	1.43776	1.43667
298.15 K, Wavelength=546.1 nm	1.43975	1.43919	1.43879	1.4383	1.43762	1.43712	1.43618	1.43541	1.43467	1.43341
298.15 K, Wavelength=587.6 nm	1.43802	1.43746	1.437	1.43658	1.43619	1.43539	1.43469	1.43371	1.43285	1.43168
298.15 K, Wavelength=632.8 nm	1.43645	1.4359	1.43532	1.43502	1.43462	1.43383	1.43322	1.43217	1.43136	1.43004
298.15 K, Wavelength=644 nm	1.43611	1.43555	1.43498	1.43455	1.43428	1.43349	1.433	1.43183	1.43102	1.4298
298.15 K, Wavelength=706.5 nm	1.43441	1.43388	1.43335	1.43299	1.4326	1.43191	1.43129	1.43036	1.42924	1.42812
303.15 K, Wavelength=404.7 nm	1.44902	1.44844	1.44795	1.44749	1.44689	1.44619	1.44547	1.44435	1.44351	1.44237
303.15 K, Wavelength=435.8 nm	1.44566	1.44521	1.44451	1.44394	1.44353	1.44285	1.44213	1.44101	1.44017	1.43903
303.15 K, Wavelength=486.1 nm	1.44168	1.44133	1.44074	1.44019	1.43962	1.43892	1.43821	1.43713	1.43628	1.43516
303.15 K, Wavelength=546.1 nm	1.43844	1.43797	1.43739	1.43695	1.43637	1.43567	1.43498	1.43387	1.43316	1.43194
303.15 K, Wavelength=587.6 nm	1.43671	1.43615	1.43575	1.43524	1.43466	1.43396	1.43314	1.43216	1.43125	1.43024
303.15 K, Wavelength=632.8 nm	1.43514	1.4344	1.43386	1.43339	1.43311	1.43232	1.43161	1.43065	1.42981	1.42869
303.15 K, Wavelength=644 nm	1.4348	1.43405	1.43371	1.43304	1.43277	1.43207	1.43136	1.43031	1.42947	1.42834
303.15 K, Wavelength=706.5 nm	1.43312	1.43234	1.43183	1.43136	1.43109	1.4304	1.42989	1.42884	1.428	1.42669
308.15 K, Wavelength=404.7 nm	1.44755	1.44681	1.44642	1.44583	1.44528	1.44466	1.44403	1.44294	1.44202	1.44072
308.15 K, Wavelength=435.8 nm	1.44419	1.44355	1.44296	1.44258	1.44194	1.44132	1.4406	1.43962	1.43868	1.43738
308.15 K, Wavelength=486.1 nm	1.44027	1.43972	1.43922	1.43857	1.43806	1.43743	1.43673	1.43585	1.43482	1.43353
308.15 K, Wavelength=546.1 nm	1.43699	1.43636	1.43579	1.43522	1.4348	1.43417	1.43347	1.43254	1.43163	1.43033
308.15 K, Wavelength=587.6 nm	1.43529	1.43471	1.434	1.43353	1.4331	1.43247	1.43187	1.43093	1.42993	1.42865
308.15 K, Wavelength=632.8 nm	1.43375	1.43302	1.4324	1.432	1.43158	1.43095	1.43034	1.42938	1.42838	1.42712
308.15 K, Wavelength=644 nm	1.4334	1.43286	1.4322	1.43185	1.43123	1.43061	1.43	1.42895	1.42803	1.42677
308.15 K, Wavelength=706.5 nm	1.4317	1.43089	1.4305	1.42987	1.42955	1.42893	1.42834	1.42729	1.42637	1.42508
313.15 K, Wavelength=404.7 nm	1.44615	1.44547	1.44484	1.44421	1.44353	1.4429	1.44213	1.4412	1.44027	1.4391
313.15 K, Wavelength=435.8 nm	1.4428	1.44212	1.44145	1.44077	1.44021	1.43956	1.43886	1.43787	1.43694	1.43576
313.15 K, Wavelength=486.1 nm	1.43888	1.43822	1.43758	1.43688	1.43634	1.43565	1.435	1.43401	1.43313	1.43193
313.15 K, Wavelength=546.1 nm	1.43562	1.43502	1.4344	1.43385	1.43312	1.43257	1.43175	1.43082	1.42992	1.42873
313.15 K, Wavelength=587.6 nm	1.43392	1.43331	1.43262	1.43194	1.43132	1.43077	1.43006	1.42912	1.42824	1.42705
313.15 K, Wavelength=632.8 nm	1.43238	1.43157	1.43095	1.43031	1.42988	1.42924	1.42852	1.42758	1.42673	1.42553
313.15 K, Wavelength=644 nm	1.43203	1.43122	1.43065	1.42997	1.42954	1.429	1.42818	1.42724	1.42638	1.42518
313.15 K, Wavelength=706.5 nm	1.43035	1.42953	1.42898	1.4284	1.42788	1.42723	1.42653	1.42558	1.4247	1.42352
318.15 K, Wavelength=404.7 nm	1.44474	1.44416	1.44346	1.44271	1.4421	1.44134	1.44059	1.43957	1.43859	1.43751
318.15 K, Wavelength=435.8 nm	1.44141	1.44072	1.44015	1.43938	1.43872	1.438	1.43725	1.43624	1.43526	1.43417
318.15 K, Wavelength=486.1 nm	1.43754	1.43671	1.43608	1.43535	1.43468	1.43396	1.43322	1.43243	1.43145	1.43035
318.15 K, Wavelength=546.1 nm	1.43429	1.43372	1.43312	1.43243	1.43177	1.43107	1.43022	1.42925	1.42827	1.42718
318.15 K, Wavelength=587.6 nm	1.43261	1.43191	1.43127	1.43053	1.42988	1.42918	1.42854	1.42758	1.42659	1.42551
318.15 K, Wavelength=632.8 nm	1.43109	1.43037	1.42963	1.42894	1.42826	1.42752	1.42682	1.42606	1.42507	1.424
318.15 K, Wavelength=644 nm	1.43075	1.43013	1.4294	1.42884	1.42811	1.42748	1.42668	1.42572	1.42473	1.42365
318.15 K, Wavelength=706.5 nm	1.42908	1.42827	1.4276	1.42698	1.42645	1.42575	1.425	1.42406	1.42308	1.42199
